Source: patent US20250302833A1, “PHARMACEUTICAL COMPOSITION FOR TREATING OR PREVENTING CYSTIC DISEASE” (CHUGAI SEIYAKU KABUSHIKI KAISHA, priority 2022, published 2025)

Key:
[1] = test system: pcy mice (naturally occurring PKD model); assay: Suppression of increase in renal volume and decrease in renal function in pcy mice; assay type: in vivo, mouse; conditions: compared to tolvaptan
Method: The pcy mice, a naturally occurring PKD model, were used to evaluate the effects of tolvaptan and compound 4 in Test Example 1 on (a) renal volume, (b) blood urea nitrogen (UN) concentration, (c) body weight, and (d) urine volume in pcy mice.
The pcy mice (5 weeks of age at the start of this test) were grouped into 3 groups of 13 mice each. Compound 4 or tolvaptan was administered to each of the test compound administration groups. The administration period was 5 weeks. Compound 4 was administered subcutaneously once daily and tolvaptan was administered subcutaneously at a weekly pace. Compound 4 was administered at 33-40 mg/kg per dose and tolvaptan was administered at 25-30 mg/kg per dose. Compound 4 and tolvaptan were administered after dissolved in 50% DMSO/50% glycerol. A group of mice of the parental line was provided as a normal control group (Normal Control) (N=7). The 50% DMSO/50% glycerol was administered to the normal control group and the Vehicle group of pcy mice at 1 mL/kg.
The left renal volume (renal volume (mL)) of mice was calculated by the following formula using echography 5 weeks after the start of administration of the test compound, as shown in FIG. 3a.
After that, blood was collected from the abdominal vena cava, plasma was collected, and euthanasia treatment was performed. Blood urea nitrogen (UN) concentration (Plasma UN (mg/L)) was measured using L-type Waco UN (Fujifilm Wako Pure Chemical Corporation), as shown in FIG. 3b.
In addition, the body weight (Body weight (g)) of mice was measured every 7 days after the start of administration of the test compound, as shown in FIG. 3c. Furthermore, the volume of urine (Urine volume (mL/day)) was calculated from the specific gravity and measured weight of urine 5 weeks after the start of administration of the test compound, as shown in FIG. 3d.

[2] = test system: PC1 conditional knockout mice (PKD model); assay: Suppression of increase in renal volume and decrease in renal function in PC1 conditional knockout mice; assay type: in vivo, mouse
Method: The PC1 conditional knockout mice, a PKD model, were used to evaluate the effects of tolvaptan and compound 4 in Test Example 1 on (a) renal volume, (b) body weight, and (c) urine volume in PC1 conditional knockout mouse.
Tamoxifen was orally administered to PC1 conditional knockout mice at a dose of 3 mg/kg for 3 days from day 21 after birth. The PC1 conditional knockout mice (5 weeks of age at the start of this test) were grouped into 3 groups of 15 mice each. Compound 4 or tolvaptan was administered as a single agent to the test compound administration group. The administration period was 16 weeks, and they were administered subcutaneously once daily. Compound 4 was administered at 33-40 mg/kg per dose and tolvaptan was administered at 25-30 mg/kg per dose. Compound 4 and tolvaptan were administered after dissolved in 50% DMSO/50% glycerol. A group of mice to which tamoxifen was not administered was provided as a normal control group (Normal Control) (N=7). The 50% DMSO/50% glycerol was administered to the normal control group and the Vehicle group of PC1 conditional knockout mice at 1 mL/kg.
The left renal volume (renal volume (mL)) of mice was calculated by the following formula using echography 16 weeks after the start of administration of the test compound.
After that, euthanasia treatment was performed. In addition, the body weight (Body weight (g)) of mice was measured every 7 days after the start of administration of the test compound. Furthermore, the volume of urine (Urine volume (mL/day)) was calculated from the specific gravity and measured weight of urine 16 weeks after the start of administration of the test compound.

## CCCN([C@H]1CC[C@H](C(=O)[O-])CC1)S(=O)(=O)c1cccc(C(=O)Nc2sc3c(c2C(=O)Nc2ccc(CCCc4ccc(C(=O)[O-])cc4)cc2)CCCC3)c1.[Na+].[Na+] [Compound 4, Disodium; 4-[3-[4-[[2-[[3-[(4-carboxylatocyclohexyl)-propylsulfamoyl]benzoyl]ami-no]-4,5,6,7-tetrahydro-1-benzothiophene-3-carbonyl]amino]phenyl]pro-pyl]benzoic acid]
[1]; 5 weeks administration
  Body weight (weight loss): less weight loss
[1]; 5 weeks after start of administration
  Urine volume: no increase in urine volume
[1]; 33-40 mg/kg s.c. once daily, 5 weeks, left renal volume by echography
  Suppression effect on increase in renal volume: same degree of suppression effects
[1]; 33-40 mg/kg s.c. once daily, 5 weeks, plasma UN
  Suppression effect on decrease in renal function (blood urea nitrogen): same degree of suppression effects
[2]; 16 weeks administration, compared to tolvaptan
  Body weight (weight loss): less weight loss
[2]; 16 weeks after start of administration, compared to tolvaptan
  Urine volume: no increase in urine volume
[2]; 33-40 mg/kg s.c. once daily, 16 weeks
  Suppression effect on decrease in renal function: suppression effect
[2]; 33-40 mg/kg s.c. once daily, 16 weeks, left renal volume by echography
  Suppression effect on increase in renal volume: suppression effect
